Columns and labels:
[1] = biological target: T1, PBD2 S652F mutant (Homo sapiens, UniProt Q9NYY3, S652F); test: FP-based inhibition assay, PBD2 S652F; assay type: binding
T1 construct: Purification of PBD2-His (355–685) (pKM3358) and its S652F mutant (pKM7980); His (C); made in house; host or cells: bacteria (E. coli)
Protocol: (§1) FP assays were carried out essentially as described previously ([35], [36]). FITC-conjugated ligands (15 nM) were mixed with PBDs at their EC85 concentrations. All the samples were analyzed approximately 30 min after reaction in a 384-well format using the SpectraMax Paradigm multimode microplate detection platform (Molecular Devices). Data were analyzed after carrying out at least three independent experiments using GraphPad Prism software version 8.
(§2) Fig. S3. Sequence alignment showing unique PBD2 S652 and PBD3 A612 residues and FP-based Allopole-A inhibition assays carried out with PBD2 S652F and PBD A612F mutants. (A) Human PBD1 (Uniprot ID: P53350), PBD2 (Uniprot ID: Q9NYY3), and PBD3 (15niport ID:Q9H4B4) sequences were aligned using Clustal Omega. The polo-box cap and L1 loop regions were adjusted based on the structural superposition of PBD1 (PDB ID: 3HIK), PBD2 (PDB_ID: 4RS6), and the AlphaFold model of PBD3 (https://alphafold.ebi.ac.uk). […]
(§3) with PBD2 and MBP-PBD3 are working properly under our conditions. […] The Kd values for the indicated proteins were determined after extrapolating them from the binding curves as the […]
(§4) concentration at which 50% of FITC-conjugated ligands (FITC-GPMQTSpTPKNG for PBD2 and FITC-GPLATSpTPKNG for PBD3) (5) are protein-bound. The EC85 values indicate the effective concentration of 85% of the maximal concentration calculated for each protein. […]

[2] = biological target: T2, PBD3 A612F mutant (Homo sapiens, UniProt Q9H4B4, A612F); test: FP-based inhibition assay, PBD3 A612F; assay type: binding; conditions: MBP-PBD3 A612F
T2 construct: MBP-PBD3-His (335–646) (pKM3359) and its A612F (pKM7981); His (C); made in house; host or cells: bacteria (E. coli)
T2 sequence (Q9H4B4 335-646 A612F): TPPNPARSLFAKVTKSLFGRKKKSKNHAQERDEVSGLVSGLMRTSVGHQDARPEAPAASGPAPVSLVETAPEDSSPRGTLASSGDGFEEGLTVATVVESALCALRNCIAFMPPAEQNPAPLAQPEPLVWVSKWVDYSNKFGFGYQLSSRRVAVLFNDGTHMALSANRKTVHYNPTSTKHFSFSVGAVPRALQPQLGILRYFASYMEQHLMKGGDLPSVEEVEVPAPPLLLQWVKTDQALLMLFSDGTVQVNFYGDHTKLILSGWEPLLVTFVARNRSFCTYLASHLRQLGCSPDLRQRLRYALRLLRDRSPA
Protocol: as §1, §2, §3, §4

[3] = biological target: T3, Plk3 PBD (PBD3) (Homo sapiens, UniProt Q9H4B4); test: FP-based inhibition assay, PBD3; assay type: binding; conditions: bacterially expressed purified PBD, FITC-ligand 15 nM, PBD at EC85
T3 construct: MBP-PBD3-His (335–646) (pKM3359) and its A612F (pKM7981); His (C); made in house; host or cells: bacteria (E. coli)
T3 sequence (Q9H4B4 335-646): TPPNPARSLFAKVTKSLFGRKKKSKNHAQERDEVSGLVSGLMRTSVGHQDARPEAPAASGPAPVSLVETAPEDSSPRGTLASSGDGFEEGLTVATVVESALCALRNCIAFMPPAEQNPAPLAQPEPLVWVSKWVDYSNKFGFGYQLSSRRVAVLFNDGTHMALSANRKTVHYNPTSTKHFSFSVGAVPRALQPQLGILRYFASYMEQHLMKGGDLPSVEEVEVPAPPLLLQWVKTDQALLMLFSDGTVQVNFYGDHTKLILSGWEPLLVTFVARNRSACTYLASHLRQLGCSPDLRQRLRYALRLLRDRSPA
Protocol: as §1

[4] = system: mGFP-Plk1 F559D at centrosomes, U2OS cells; test: Confocal quantification of Pendo-mGFP-Plk1 F559D in U2OS cells (siPlk1); assay type: cell-based; conditions: U2OS siPlk1, 8 μM, 2 or 16 h
Protocol: To corroborate the importance of the F559 residue for Allopole-A binding, U2OS cells expressing endogenous promoter (i.e., Pendo)-controlled mGFP-Plk1 WT or F559D mutant were depleted of endogenous Plk1 by RNAi for 48 h (SI Appendix, Fig. S4C), treated with control DMSO or 8 μM of Allopole for 2 or 16 h, and fixed (SI Appendix, Fig. S4D). Afterward, the level of mGFP fluorescence was quantified using confocal microscopy (Fig. 4 C and D). As expected from the results shown in Fig. 1 C and D, Allopole delocalized mGFP-Plk1 WT from centrosomes within 2 h after treatment, and this effect was sustained for up to 16 h. […] This could be attributable to the fact that unlike PBIP1, which binds to PBD1 through the self-priming and binding mechanism ([49]), Bub1, BubR1, and likely Cdc25C require Cdc2-dependent priming phosphorylation to interact with PBD1 ([42]–[44]). […]
Confocal images of unsaturated fluorescence signals were acquired under the same laser intensity at the 12-bit resolution. Fluorescence intensities for identifiable centrosome and kinetochore signals were quantified after the maximum-intensity projection of z-stacks using the Zeiss ZEN v2.1 software (Carl Zeiss Microscopy, LLC). Data were quantified from three independent experiments.

[5] = Solubility in PBS (imaging of insoluble particles, dynamic light scattering); assay type: physicochemical; conditions: PBS buffer (pH 7.4)
Protocol: All samples were analyzed after adjusting the concentration to 100 μM solution in the PBS buffer (pH 7.4) containing 1% DMSO. The measurements were carried out at 25 °C using the DynaPro NanoStar system (Wyatt Technology). The intensity of the scattered light was measured as a function of time, and the resulting data were used to calculate the size and distribution of the particles in the sample. Collected data were analyzed using the DYNAMICS software to calculate the mean size and polydispersity index of the particles in the sample. At least three repeat measurements were performed to ensure that the results were accurate and reproducible.
Fig. S1. Solubility and activity of Allopole and its related compounds. (A) Images showing insoluble
particles of 200 µM of the indicated compounds dissolved in the PBS buffer. The aggregates of […]

T1 sequence (Q9NYY3 355-685 S652F): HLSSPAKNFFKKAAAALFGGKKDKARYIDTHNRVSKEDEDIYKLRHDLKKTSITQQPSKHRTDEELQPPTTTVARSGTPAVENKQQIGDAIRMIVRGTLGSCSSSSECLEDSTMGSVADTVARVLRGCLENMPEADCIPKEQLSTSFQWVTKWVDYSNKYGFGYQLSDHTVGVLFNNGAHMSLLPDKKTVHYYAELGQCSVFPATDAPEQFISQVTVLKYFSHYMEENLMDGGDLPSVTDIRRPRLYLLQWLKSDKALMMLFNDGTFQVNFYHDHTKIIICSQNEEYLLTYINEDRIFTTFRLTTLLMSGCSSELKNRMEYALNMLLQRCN

Structure (SMILES) | Inhibition in FP assay (in words) [1] | Inhibition in FP assay (in words) [2] | PBD3 IC50 ± SD [3] | Level of centrosome-localized mGFP-Plk1 F559D (in words) [4] | Solubility (in words) [5]
O=c1c2sc(Cl)cc2n2c(=S)[nH]nc2n1CC1CC1 [Allopole-A] | not inhibitable | not inhibitable | N. S. | – | –
Cn1cnc([N+](=O)[O-])c1Sc1nnc2n(CC3CC3)c(=O)c3sc(Cl)cc3n12 [Allopole] | – | – | – | failed to alter the level | greatly increased solubility
